This passage reports EC50 results from patent US12612409B2, “Pyrrolopyrimidines as CFTR potentiators” (Cystic Fibrosis Foundation, priority 2016, dated 2026).

In test [1] the target is T1, recombinant F508del V470 CFTR in Fischer rat thyroid (FRT) cells (Homo sapiens, UniProt P13569, DEL508-508).
T1 construct: expressed in transfected cells
Kind of test: FRT ion flux assay of F508del CFTR potentiation. Type of test: cell-based. Conditions: FRT cells expressing F508del V470 CFTR, forskolin 20 uM, 27° C. pre-incubation. In short, it runs like this: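 FRT cells co-expressing F508del V470 CFTR and halide-sensitive YFP, temperature-corrected at 27° C for 16-24 h, then treated 30 min with compound plus 20 uM forskolin. Iodide addition quenches YFP, read after ~21 s; ratio scaled to DMSO (0%) and positive control potentiator (100%).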

In test [2] the target is T2, CFTR in F508del/F508del primary CF hBE cells (Homo sapiens, UniProt P13569, DEL508-508).
T2 construct: Primary cystic fibrosis human bronchial epithelial (CF hBE) cells were expanded and cultured; endogenous in cells; host or cells: primary CF human bronchial epithelial cells, genotype F508del/F508del
The experiment in a line: Ussing chamber electrophysiology assay of CFTR potentiation in F508del/F508del CF bronchial epithelial cells (27° C.). The format is cell-based. The text has this:
• SHELXTL, Version 5.1, Bruker AXS, 1997. • PLATON, A. L. Spek, J. Appl. Cryst. 2003, 36, 7-13. • MERCURY, C. F. Macrae, P. R. Edington, P. McCabe, E. Pidcock, G. P. Shields, R. Taylor, M. Towler and J. van de Streek, J. Appl. Cryst. 39, 453-457, 2006. • OLEX2, Dolomanov, O. V.; Bourhis, L. J.; Gildea, R. J.; Howard, J. A. K.; Puschmann, H., (2009). J. Appl. Cryst., 42, 339-341. • R. W. W. Hooft et al. J. Appl. Cryst. (2008). 41. 96-103. • H. D. Flack, Acta Cryst. 1983, A39, 867-881. Using Chamber Electrophysiology Assay of CFTR Potentiation in CF Bronchial Epithelial Cells
Primary cystic fibrosis human bronchial epithelial (CF hBE) cells were expanded and cultured according to published methods (Neuberger et al., Ch. 4 of Cystic Fibrosis, Methods in Molecular Biology vol. 741, pp. 39-54 (2011)). Well-differentiated cells (>30 days at air/liquid interface) on Snapwell filters (Corning Costar, cat. no. 3801) were mounted in Ussing chambers (Physiologic Instruments, Inc., San Diego, CA). […] HEPES buffered physiological saline (composition (in mM): 137 NaCl, 4 KCl, 1 MgCl2, 1.8 CaCl2), 10 HEPES Na) was used in both apical and basolateral chambers. Chambers were bubbled with air to promote mixing and the voltage was clamped to zero. Amiloride (30 uM), forskolin (10 uM), test compound (4 increasing concentrations), and CFTRinh-172 (20 uM) were added sequentially with 20-25 minutes between additions. Short-circuit currents were acquired and analyzed using LabScribe2. Test compound responses were scaled relative to responses for DMSO (0%) and the maximal response of a positive control potentiator (100%).

T2 sequence (P13569 with tags, fused parts or gaps DEL508-508): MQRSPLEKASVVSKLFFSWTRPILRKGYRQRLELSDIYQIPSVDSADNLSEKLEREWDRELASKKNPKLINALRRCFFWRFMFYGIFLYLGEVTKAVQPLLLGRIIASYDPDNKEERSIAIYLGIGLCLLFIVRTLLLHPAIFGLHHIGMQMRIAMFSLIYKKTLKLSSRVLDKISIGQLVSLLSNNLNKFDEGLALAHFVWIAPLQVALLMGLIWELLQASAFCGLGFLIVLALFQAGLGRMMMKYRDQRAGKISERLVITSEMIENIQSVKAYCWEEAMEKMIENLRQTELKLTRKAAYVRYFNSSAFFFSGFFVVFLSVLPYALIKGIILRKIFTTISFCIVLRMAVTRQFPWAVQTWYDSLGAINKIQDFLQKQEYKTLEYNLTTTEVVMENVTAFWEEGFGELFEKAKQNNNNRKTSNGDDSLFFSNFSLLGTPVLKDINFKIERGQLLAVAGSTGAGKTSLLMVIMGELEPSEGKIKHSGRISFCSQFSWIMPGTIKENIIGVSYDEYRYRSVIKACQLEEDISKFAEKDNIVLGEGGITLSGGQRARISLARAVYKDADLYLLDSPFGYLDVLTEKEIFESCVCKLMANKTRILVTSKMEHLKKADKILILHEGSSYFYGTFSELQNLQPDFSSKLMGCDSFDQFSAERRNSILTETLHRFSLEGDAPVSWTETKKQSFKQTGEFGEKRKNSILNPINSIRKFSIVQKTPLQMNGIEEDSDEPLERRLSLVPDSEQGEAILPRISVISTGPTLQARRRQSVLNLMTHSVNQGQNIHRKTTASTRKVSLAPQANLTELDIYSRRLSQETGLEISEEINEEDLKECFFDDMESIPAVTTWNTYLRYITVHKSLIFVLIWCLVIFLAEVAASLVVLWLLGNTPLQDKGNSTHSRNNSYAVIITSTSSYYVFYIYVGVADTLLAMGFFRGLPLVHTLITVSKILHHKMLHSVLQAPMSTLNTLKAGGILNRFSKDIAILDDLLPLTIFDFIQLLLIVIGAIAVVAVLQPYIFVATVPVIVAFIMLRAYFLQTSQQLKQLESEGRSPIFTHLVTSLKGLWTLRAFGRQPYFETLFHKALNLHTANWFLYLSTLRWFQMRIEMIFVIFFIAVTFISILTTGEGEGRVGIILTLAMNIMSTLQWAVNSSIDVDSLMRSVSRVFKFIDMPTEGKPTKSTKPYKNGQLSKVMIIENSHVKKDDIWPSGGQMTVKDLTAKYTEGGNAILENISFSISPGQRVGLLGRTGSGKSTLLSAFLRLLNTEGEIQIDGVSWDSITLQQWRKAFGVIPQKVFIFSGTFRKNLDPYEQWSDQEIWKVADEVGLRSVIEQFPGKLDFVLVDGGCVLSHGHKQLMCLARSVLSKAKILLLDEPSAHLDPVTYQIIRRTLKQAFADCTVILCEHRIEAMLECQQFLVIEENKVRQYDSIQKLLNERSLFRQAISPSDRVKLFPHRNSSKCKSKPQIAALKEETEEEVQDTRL
T1 sequence (P13569 with tags, fused parts or gaps DEL508-508): as above

As for `CCC(c1cn(-c2ccccc2F)nn1)n1c(C#N)c(-c2cnc(C(F)(F)F)nc2)c2c(N)ncnc21` (single isomer, unassigned) [Example 23, 4-Amino-7-{1-[1-(2-fluorophenyl)-1H-1,2,3-triazol-4-yl]propyl}-5-[2-(trifluoromethyl)pyrimidin-5-yl]-7H-pyrrolo[2,3-d]pyrimidine-6-carbonitrile], the EC50 (as a rule, the concentration at which the effect is half-maximal) in test [1] stood at 41.8 nM; in test [2], 32.5 nM.

Regarding `CCC(c1cn(-c2ccccc2F)nn1)n1c(C#N)c(-c2ccc(OC(F)F)nc2)c2c(N)ncnc21` (single isomer, unassigned) [Example 24, 4-Amino-5-[6-(difluoromethoxy)pyridin-3-yl]-7-{1-[1-(2-fluorophenyl)-1H-1,2,3-triazol-4-yl]propyl}-7H-pyrrolo[2,3-d]pyrimidine-6-carbonitrile], the EC50 in test [1] is 21.5 nM; in test [2], 30 nM.

Take `CC(c1cn(-c2ccccc2F)nn1)n1cc(C2CC2)c2c(N)ncnc21` (single isomer, unassigned) [Example 108, 5-Cyclopropyl-7-{1-[1-(2-fluorophenyl)-1H-1,2,3-triazol-4-yl]ethyl}-7H-pyrrolo[2,3-d]pyrimidin-4-amine]: the EC50 in test [1] was 1200 nM; in test [2], 706 nM.

With `CC(c1cn(-c2ccccc2F)nn1)n1cc(C2CC2)c2c(N)ncnc21` (single isomer, unassigned) [Example 109, 5-Cyclopropyl-7-{1-[1-(2-fluorophenyl)-1H-1,2,3-triazol-4-yl]ethyl}-7H-pyrrolo[2,3-d]pyrimidin-4-amine], the EC50 in test [1] was 36.5 nM; in test [2], 68.6 nM.

In the case of `CC(c1cn(-c2ccccc2F)nn1)n1cc(C2CCC2)c2c(N)ncnc21` (single isomer, unassigned) [Example 110, 5-Cyclobutyl-7-{1-[1-(2-fluorophenyl)-1H-1,2,3-triazol-4-yl]ethyl}-7H-pyrrolo[2,3-d]pyrimidin-4-amine], the figures for the EC50 in test [1] and in test [2] were 2.65 nM and 6.21 nM, respectively.

Consider `CC(c1cn(-c2ccccc2F)nn1)n1cc(-c2ccc(Cl)cc2)c2c(N)ncnc21` (single isomer, unassigned) [Example 111], for which the EC50 in test [1] was 533 nM; in test [2] it was 136 nM.

For the compound `CC(c1cn(-c2ccccc2F)nn1)n1cc(-c2ccc(Cl)cc2)c2c(N)ncnc21` (single isomer, unassigned) [Example 112], the EC50 came out at 68.6 nM in test [1] and 17.5 nM in test [2].

On to `COc1ncccc1-c1cn(C(C)c2cn(-c3ccccc3F)nn2)c2ncnc(N)c12` (single isomer, unassigned) [Example 113, 7-{1-[1-(2-Fluorophenyl)-1H-1,2,3-triazol-4-yl]ethyl}-5-(2-methoxypyridin-3-yl)-7H-pyrrolo[2,3-d]pyrimidin-4-amine], for which the figures for the EC50 in test [1] and in test [2] were 826 nM and 818 nM, respectively.

With `CCC(c1cn(-c2cc(F)ccc2F)nn1)n1cc(-c2cnc(C(F)(F)F)nc2)c2c(N)ncnc21` (single isomer, unassigned) [Example 185, 7-{1-[1-(2,5-difluorophenyl)-1H-1,2,3-triazol-4-yl]propyl}-5-[2-(trifluoromethyl)pyrimidin-5-yl]-7H-pyrrolo[2,3-d]pyrimidin-4-amine], the EC50 in test [1] was 34.7 nM; in test [2], 14.4 nM.

For `CCC(c1cn(-c2cc(F)ccc2F)nn1)n1cc(-c2cnc(C(F)(F)F)nc2)c2c(N)ncnc21` (single isomer, unassigned) [Example 186, 7-{1-[1-(2,5-difluorophenyl)-1H-1,2,3-triazol-4-yl]propyl}-5-[2-(trifluoromethyl)pyrimidin-5-yl]-7H-pyrrolo[2,3-d]pyrimidin-4-amine], the values for the EC50 in test [1] and in test [2] were 631 nM and 297 nM, respectively.

For `CCC(c1cn(-c2cccc(F)c2F)nn1)n1cc(-c2cnc(C(F)(F)F)nc2)c2c(N)ncnc21` (single isomer, unassigned) [Example 187, 7-{1-[1-(2,3-Difluorophenyl)-1H-1,2,3-triazol-4-yl]propyl}-5-[2-(trifluoromethyl)pyrimidin-5-yl]-7H-pyrrolo[2,3-d]pyrimidin-4-amine], the EC50 in test [1] was found to be 13.2 nM; in test [2] it was 13 nM.

As for `CCC(c1cn(-c2cccc(F)c2F)nn1)n1cc(-c2cnc(C(F)(F)F)nc2)c2c(N)ncnc21` (single isomer, unassigned) [Example 188, 7-{1-[1-(2,3-Difluorophenyl)-1H-1,2,3-triazol-4-yl]propyl}-5-[2-(trifluoromethyl)pyrimidin-5-yl]-7H-pyrrolo[2,3-d]pyrimidin-4-amine], the EC50 amounted to 551 nM in test [1] and 243 nM in test [2].

`CCC(c1nnn(-c2ccc(F)cc2F)c1C)n1cc(-c2cnc(C(F)(F)F)nc2)c2c(N)ncnc21` (single isomer, unassigned) [Example 189]: the EC50 in test [1] was found to be 6.72 nM; in test [2] it was 10.2 nM.

As for `COc1ncc(-c2cn(C(C)c3cc(-c4ccccc4F)no3)c3ncnc(N)c23)cn1` (single isomer, unassigned; (+)) [Example 184, (+) 7-{1-[3-(2-fluorophenyl)-1,2-oxazol-5-yl]ethyl}-5-(2-methoxypyrimidin-5-yl)-7H-pyrrolo[2,3-d]pyrimidin-4-amine], the EC50 in test [1] is 49.7 nM; in test [2] it was 32.6 nM.

Regarding `CCC(c1cn(-c2ccccc2F)nn1)n1cc(-c2cncnc2OC)c2c(N)nc(C)nc21` (single isomer, unassigned; (+)) [Example 303, (+) 7-{1-[1-(2-Fluorophenyl)-1H-1,2,3-triazol-4-yl]propyl}-5-(4-methoxypyrimidin-5-yl)-2-methyl-7H-pyrrolo[2,3-d]pyrimidin-4-amine], the EC50 stood at 2740 nM in test [1] and 1640 nM in test [2].

On to `COc1ncc(-c2cn(C(C)c3cc(-c4ccccc4F)no3)c3ncnc(N)c23)cn1` (single isomer, unassigned; (-)) [Example 183, (−) 7-{1-[3-(2-fluorophenyl)-1,2-oxazol-5-yl]ethyl}-5-(2-methoxypyrimidin-5-yl)-7H-pyrrolo[2,3-d]pyrimidin-4-amine], for which the EC50 amounted to 509 nM in test [1] and 305 nM in test [2].

Take `CC(c1cn(-c2ccccc2F)nn1)n1cc(-c2ccc(C#N)c(F)c2)c2c(N)ncnc21` (single isomer, unassigned; enantiomer 1) [Example 115, 4-(4-Amino-7-{1-[1-(2-fluorophenyl)-1H-1,2,3-triazol-4-yl]ethyl}-7H-pyrrolo[2,3-d]pyrimidin-5-yl)-2-fluorobenzonitrile, enantiomer 1]: the EC50 came to 566 nM in test [1] and 614 nM in test [2].

For `CC(c1cn(-c2ccccc2F)nn1)n1cc(-c2ccc(OC3CC3)cc2)c2c(N)ncnc21` (single isomer, unassigned; enantiomer 1) [Example 117, (+) 5-[4-(Cyclopropyloxy)phenyl]-7-{1-[1-(2-fluorophenyl)-1H-1,2,3-triazol-4-yl]ethyl}-7H-pyrrolo[2,3-d]pyrimidin-4-amine, enantiomer 1], the EC50 stood at 58.8 nM in test [1] and 49.3 nM in test [2].

As to `CC(c1cn(-c2ccccc2F)nn1)n1cc(-c2ccc(OC3CC3)nc2)c2c(N)ncnc21` (single isomer, unassigned; enantiomer 1) [Example 119, (−) 5-[6-(Cyclopropyloxy)pyridin-3-yl]-7-{1-[1-(2-fluorophenyl)-1H-1,2,3-triazol-4-yl]ethyl}-7H-pyrrolo[2,3-d]pyrimidin-4-amine, enantiomer 1], the EC50 in test [1] amounted to 677 nM; in test [2], 187 nM.
